The RepoRT retention time repository

Assay: A: acetonitrile + 0.1% formic acid + 10 mM ammonium formate; B: 5% water + 95% acetonitrile + 0.1% formic acid + 10 mM ammonium formate; gradient (min/%B) 0/10 2/10 22/100 27/100 27.1/10
Conditions: stereoisomer not certain

Row | SMILES | LC retention time
1 | CS(=N)(=O)CC[C@H](N)C(=O)O (stereo partly drawn) [(2S)-2-Amino-4-(S-methylsulfonimidoyl)butanoic acid] | 6.69 min
2 | CC=C(C)C(=O)NCC(=O)O [N-Tiglylglycine] | 1.97 min
3 | CC(=O)c1cnccn1 [2-Acetylpyrazine] | 0.441 min
4 | NCCS(=O)O [Hypotaurine] | 6.07 min
5 | NCC(=O)N[C@@H](Cc1ccc(O)cc1)C(=O)O [Glycyl-L-tyrosine] | 5.97 min
6 | CNC(=O)c1cccnc1 [N'-Methylnicotinamide] | 0.564 min
7 | CCCCC1=NC2(CCCC2)C(=O)N1Cc1ccc(-c2ccccc2-c2nn[nH]n2)cc1 [Irbesartan] | 0.475 min
8 | CC12C=CC(=O)C=C1CCC1C2C(O)CC2(C)C1CCC2(O)C(=O)CO (centres undefined) [Hydroretrocortine] | 0.485 min
9 | NCCc1c[nH]c2ccccc12 [Tryptamine] | 2.25 min
10 | O=c1[nH]c(=O)c2ncn(C3OC(COP(=O)(O)O)C(O)C3O)c2[nH]1 (centres undefined) [Xanthosine 5'-monophosphate] | 7.42 min
11 | COc1ccc(-c2coc3cc(O)cc(O)c3c2=O)cc1 [Biochanin A] | 0.424 min
12 | C[N+](C)(C)CCOP(=O)(O)OP(=O)([O-])OCC1OC(n2ccc(N)nc2=O)C(O)C1O (centres undefined) [Citicoline] | 8.51 min
13 | O=C(O)C/C=C/CC(=O)O [trans-2-Butene-1,4-dicarboxylic Acid] | 5.56 min
14 | Cc1cc2nc3c(=O)[nH]c(=O)nc-3n(CC(O)C(O)C(O)CO)c2cc1C (centres undefined) [Riboflavin] | 3.65 min
15 | CCC(=O)OCC(=O)C1(OC(=O)CC)C(C)CC2C3CCC4=CC(=O)C=CC4(C)C3(Cl)C(O)CC21C (centres undefined) [Beclometasone dipropionate] | 0.416 min
16 | NC(CSCC(=O)O)C(=O)O (centres undefined) [Carbocysteine] | 6.96 min
17 | C[N+](C)(C)C[C@H](O)CC(=O)[O-] [L-Carnitine] | 6.22 min
18 | C[S+](CC[C@H](N)C(=O)[O-])C[C@H]1O[C@@H](n2cnc3c(N)ncnc32)[C@H](O)[C@@H]1O (stereo partly drawn) [S-(5'-Adenosyl)-L-methionine] | 8.08 min
19 | CC(CCC(=O)NCC(=O)O)C1CCC2C3C(O)CC4CC(O)CCC4(C)C3CC(O)C12C (centres undefined) [Glycocholic acid] | 4.17 min
20 | CSCC[C@H](NC=O)C(=O)O [N-Formyl-L-methionine] | 2.34 min
21 | CC(=CC(=O)O)C(=O)O [Citraconic acid] | 0.78 min
22 | CNC(=C[N+](=O)[O-])NCCSCc1ccc(CN(C)C)o1 [Ranitidine] | 3.12 min
23 | N[C@@H](Cc1ccc(O)c(O)c1)C(=O)O [L-Dopa] | 6.06 min

Row | SMILES | LC retention time
24 | CC1=CC(=O)C(C)O1 (centres undefined) [2,5-Dimethyl-2,3-dihydrofuran-3-one] | 0.451 min
25 | CCN(CC)CCOc1ccc(C(=C(Cl)c2ccccc2)c2ccccc2)cc1 [Clomiphene] | 0.799 min
26 | Nc1ncnc2c1ncn2C1CC(O)C(CO)O1 (centres undefined) [2'-Deoxyadenosine] | 1.39 min
27 | Cc1noc(NS(=O)(=O)c2ccc(N)cc2)c1C [Sulfisoxazole] | 0.449 min
28 | Cc1cc2nc[nH]c2cc1C [5,6-Dimethylbenzimidazole] | 0.733 min
29 | O=C(C=CC=Cc1ccc2c(c1)OCO2)N1CCCCC1 [Piperine] | 0.44 min
30 | CC(CS)C(=O)N1CCCC1C(=O)O (centres undefined) [Captopril] | 1.1 min
31 | CNCCC(Oc1ccccc1C)c1ccccc1 (centres undefined) [Atomoxetine] | 1.02 min
32 | N[C@@H](CS(=O)(=O)O)C(=O)O [L-Cysteic acid] | 6.79 min
33 | Cc1ccc(S(=O)(=O)NC(=O)NN2CC3CCCC3C2)cc1 (centres undefined) [Gliclazide] | 0.423 min
34 | O=C(O)CNC(=O)c1ccccc1 [Hippuric acid] | 1.59 min
35 | CC(C(=O)O)c1cccc(C(=O)c2ccccc2)c1 (centres undefined) [Ketoprofen] | 0.455 min
36 | Cn1c(=O)[nH]c2ncn(C)c2c1=O [1,7-dimethylxanthine] | 0.655 min
37 | NC(CCC(=O)NC(CSSCC(NC(=O)CCC(N)C(=O)O)C(=O)NCC(=O)O)C(=O)NCC(=O)O)C(=O)O [L-Glutathione oxidized] | 8.69 min
38 | COc1ccccc1OCCNCC(O)COc1cccc2[nH]c3ccccc3c12 (centres undefined) [Carvedilol] | 1.03 min
39 | OCC1OC(OC2C(CO)OC(O)(CO)C2O)C(O)C(O)C1O (centres undefined) [Lactulose] | 6.6 min
40 | Nc1nc2c(ncn2C2OC(COP(=O)(O)O)C(O)C2O)c(=O)[nH]1 (centres undefined) [Guanosine 5'-monophosphate] | 7.36 min
41 | CC(C)OC(=O)C(C)(C)Oc1ccc(C(=O)c2ccc(Cl)cc2)cc1 [Fenofibrate] | 0.401 min
42 | O=C(CO)[C@@H](O)[C@H](O)[C@H](O)COP(=O)(O)O [D-Fructose-6-phosphate] | 7.36 min
43 | COc1ccccc1C=CC=O [2-Methoxycinnamaldehyde] | 0.436 min
44 | O=c1[nH]cnc2[nH]ncc12 [Allopurinol] | 0.996 min
45 | N[C@@H](Cc1ccc(O)c([N+](=O)[O-])c1)C(=O)O [3-Nitro-L- tyrosine] | 4.76 min
46 | O=c1ccc2ccccc2o1 [Coumarin] | 0.431 min

Row | SMILES | LC retention time
47 | Nc1ncnc2nc[nH]c12 [Adenine] | 2 min
48 | CC(=O)NC(CCC(=O)O)C(=O)O (centres undefined) [N-Acetylglutamic acid] | 5.85 min
49 | CC(C)Oc1ccc2c(=O)c(-c3ccccc3)coc2c1 [Ipriflavone] | 0.767 min
50 | Cc1cnc(=O)[nH]c1N [5-Methylcytosine] | 3.15 min
51 | CCCCOC(=O)CCCCCCCCC(=O)OCCCC [Dibutyl sebacate] | 0.404 min
52 | CCC=CCC1C(=O)CCC1CC(=O)OC (mixture of isomers) [Methyl Jasmonate (mixture of isomers)] | 0.421 min
53 | CNC(CC(C)C)C(=O)NC1C(=O)NC(CC(N)=O)C(=O)NC2C(=O)NC3C(=O)NC(C(=O)NC(C(=O)O)c4cc(O)cc(O)c4-c4cc3ccc4O)C(O)c3ccc(c(Cl)c3)Oc3cc2cc(c3OC2OC(CO)C(O)C(O)C2OC2CC(C)(N)C(O)C(C)O2)Oc2ccc(cc2Cl)C1O (centres undefined) [Vancomycin] | 8.2 min
54 | CC(C)CC(=O)NCC(=O)O [N-Iso valerylglycine] | 1.63 min
55 | NCCCC(=O)O [gamma-Aminobutyric acid] | 5.83 min
56 | COc1cc(C=O)ccc1O [Vanillin] | 0.435 min
57 | CCOC(=O)N1CCC(=C2c3ccc(Cl)cc3CCc3cccnc32)CC1 [Loratadine] | 0.433 min
58 | O=C(O)c1ccc2ccccc2n1 [Quinaldic acid] | 1.48 min
59 | CC(=O)NCC(=O)O [N-Acetylglycine] | 5.64 min
60 | CCOC(=O)CCC(=O)OCC [Diethyl succinate] | 0.425 min
61 | CC(=O)NCCc1c[nH]c2ccc(O)cc12 [N-Acetyl-5-hydroxytryptamine] | 0.492 min
62 | CC(C)CCCC(C)C1CCC2C3CCC4=CC(=O)CCC4(C)C3CCC12C (single isomer, unassigned; (+)) [(+)-4-Cholesten-3-one] | 0.407 min
63 | CC(=O)NC(CCC(N)=O)C(=O)O [N-alpha-Acetyl-L-glutamine] | 5.85 min
64 | C=C(C)C1Cc2c(ccc3c2OC2COc4cc(OC)c(OC)cc4C2C3=O)O1 (centres undefined) [Rotenone] | 0.416 min
65 | O=C1CCc2ccc(OCCCCN3CCN(c4cccc(Cl)c4Cl)CC3)cc2N1 [Aripiprazole] | 1.25 min
66 | N[C@@H](Cc1ccccc1)C(=O)O [L-Phenylalanine] | 4.83 min
67 | CN(C)CCCC1(c2ccc(F)cc2)OCc2cc(C#N)ccc21 (centres undefined) [Citalopram] | 0.991 min
68 | C=C(OP(=O)(O)O)C(=O)O [Phospho(enol)pyruvic Acid] | 7.08 min
69 | CC(C)n1c(C=CC(O)CC(O)CC(=O)O)c(-c2ccc(F)cc2)c2ccccc21 (centres undefined) [Fluvastatin] | 0.561 min

Row | SMILES | LC retention time
70 | CN[C@H](CC(=O)O)C(=O)O [N-Methyl-D-aspartic acid] | 7.02 min
71 | O=C(c1ccccc1)c1ccc2n1CCC2C(=O)O (centres undefined) [Ketorolac] | 0.567 min
72 | CSCC[C@H](N)C(=O)O [L-Methionine] | 5.97 min
73 | N[C@@H](CSSC[C@H](N)C(=O)O)C(=O)O [L-Cystine] | 8.16 min
74 | Cc1nc2n(c(=O)c1CCN1CCC(c3noc4cc(F)ccc34)CC1)CCCC2 [Risperidone] | 2.42 min
75 | NC(=O)C[C@H](N)C(=O)O [L-Asparagine] | 6.65 min
76 | Nc1nc2c(ncn2C2CC(O)C(CO)O2)c(=O)[nH]1 (centres undefined) [2'-Deoxyguanosine] | 4.06 min
77 | CCOC(=O)c1ccc(N)cc1 [Ethyl 4-aminobenzoate] | 0.422 min
78 | Nc1ccn(C2OC(CO)C(O)C2O)c(=O)n1 (centres undefined) [Cytidine] | 4.73 min
79 | O=C(O)Cc1ccccc1Nc1c(Cl)cccc1Cl [Diclofenac acid] | 0.456 min
80 | N[C@@H](Cc1cnc[nH]1)C(=O)O [L-Histidine] | 7.73 min
81 | CCN1CCCC1CNC(=O)c1cc(S(N)(=O)=O)ccc1OC (racemic) [(+/-)-Sulpiride] | 2.67 min
82 | CCN(CC)CCCC(C)Nc1c2ccc(Cl)cc2nc2ccc(OC)cc12 (centres undefined) [Quinacrine] | 3.99 min
83 | CN=C(NC#N)NCCSCc1nc[nH]c1C [Cimetidine] | 2.59 min
84 | OCC1OC(OCC2OC(OC3(CO)OC(CO)C(O)C3O)C(O)C(O)C2O)C(O)C(O)C1O [D-(+)-Raffinose] | 7.42 min
85 | Nc1ccc(C(=O)O)c(O)c1 [4-Aminosalicylic Acid] | 0.675 min
86 | COC(=O)c1cccnc1 [Methyl nicotinate] | 0.625 min
87 | NCCCNCCCCNCCCN [Spermine] | 9.6 min
88 | CCOC(=O)c1cncn1C(C)c1ccccc1 (centres undefined) [Etomidate] | 0.602 min
89 | CC(CN1c2ccccc2Sc2ccccc21)N(C)C (centres undefined) [Promethazine] | 0.952 min
